Assay results as given in US20040248864A1, “Use of anthroquinones in the treatment of kidney disease” (priority 2001, published 2004).
Where two headings read alike, the source gives them in different places.

Assays:
[1] = PK profile: plasma concentration of rhein after oral dosing with diacerein; type: in vivo; conditions: rat
Procedure: FIG. 1 is a PK profile, i.e. a graph of plasma concentration of rhein (mg/ml) against time (min) post-dosing with 100, 200 and 300 mg/kg diacerein.
Consequently, the dosing for the nephrotoxic nephritis experiment was based around this dose range (see below).

[2] = humans; cited from earlier work
[3] = tested on: inducible nitric oxide synthase; conditions: osteochondrocytes, IL-1b stimulated; Pelletier 1998; cited from earlier work
[4] = tested on: nephrotoxic nephritis; assay: rat model of nephritis (nephrotoxic nephritis): proteinuria and renal histology (crescents); type: in vivo; conditions: for proteinuria compared to the control: diacerein 50, 100 and oral once a day, prednisolone 2 mg/kg
Procedure: Experiments were conducted, using a rat model of nephritis (nephrotoxic nephritis) (Karkar et al, Kidney International, 1997). This is an aggressive immune driven model which parallels clinical conditions such as lupus nephritis, glomerulonephritis, IgA nephropathy and other immune-mediated nephritic diseases.
[…] Development of nephrotoxic nephritis was measured by the degree of proteinuria (in the control group) at days 6 and 10, post-disease initiation and by renal histology at day 10, quantified by the number of damaged nephrons (crescents) per histology section. These end-points were used to determine the success of the diacerein treatment. Alongside diacerein treatment, a negative control (drug vehicle only) and positive control (2 mg/kg prednisolone) were tested.

[5] = tested on: IL-1; conditions: Yaron et al 1999; Moldovan 2000; cited from earlier work
[6] = tested on: MMPs 1, 3, 9 & 13 and pro-MMPs; conditions: Tamura et al 2001; cited from earlier work
[7] = tested on: TIMP-1; conditions: Tamura et al 2001; cited from earlier work
[8] = day 6 post-disease initiation, significant at highest dose (p<0.01)
[9] = day 10 post-disease initiation, significant at top dose (p<0.01)

Structure (SMILES) | oral dose required to obtain therapeutic plasma concentrations of drug [1] [mg/kg] | oral dose required to obtain therapeutic plasma concentrations of drug [2] [mg/kg] | production of inducible nitric oxide synthase and production of nitric oxide [3] | proteinuria compared to the control [4, 8] | nephron damage (crescents per histology section) ([4]; day 10 histology, 50 mg/kg diacerein) | nephron damage (crescents per histology section) ([4]; day 10 histology, 100 mg/kg diacerein, significant (p<0.05)) | nephron damage (crescents per histology section) ([4]; day 10 histology, 200 mg/kg diacerein) | proteinuria compared to the control [4, 9] | effect on both proteinuria and renal damage associated with nephrotoxic nephritis ([4]; overall summary of the study) | production of the pro-inflammatory cytokine IL-1 [5] | production of key matrix metalloproteinases MMPs 1, 3, 9 & 13 and pro-MMPs [6] | production of tissue inhibitor of matrix MMP-1, TIMP-1 [7] | effect on renal damage (histology) ([4]; day 10 histology, 2 mg/kg prednisolone)
CC(=O)Oc1cccc2c1C(=O)c1c(OC(C)=O)cc(C(=O)O)cc1C2=O [diacerein] | 100 to 200 | 0.8 | reduce the production | decreased compared to the control | decrease in nephron damage | decrease in nephron damage | slight increase again | dose-dependant decrease in proteinuria | significant effect | reduce the production | – | – | –
O=C(O)c1cc(O)c2c(c1)C(=O)c1cccc(O)c1C2=O [rhein] | – | – | reduce the production | – | – | – | – | – | – | reduce the production | down-regulates the production | increases the production | –
C[C@]12C=CC(=O)C=C1CC[C@@H]1[C@@H]2[C@@H](O)C[C@@]2(C)[C@H]1CC[C@]2(O)C(=O)CO [prednisolone] | – | – | – | markedly reduced proteinuria | – | – | – | unexpected rebound above the control proteinuria levels | – | – | – | – | negligible
